From patent publication US20150175530A1, “ANTIBACTERIAL AGENTS” (priority 2012, published 2015)
In brackets after ≈: the same amount, converted by molar mass. Where two headings read alike, the source gives them in different places.

How the values were obtained:
[1] = test system: 3 P. aeruginosa strains (APAE001, APAE002, APAE006); assay: Protein binding: fold change in MIC in the presence of 2% HSA and 0.05% AGP, Geomean of 3 strains; type: cell-based, Pseudomonas aeruginosa; details: MIC in the presence of 2% HSA and 0.05% AGP divided by MIC in the absence; Geomean of 3 P. aeruginosa strains (APAE001, APAE002, APAE006)
Experimental: The effect of human serum albumin (HSA) and α-1-acid glycoprotein (AGP) from human plasma, which are known to nonspecifically bind to certain antibiotics and thereby reduce their activity (Banéres-Roquet et al. 2009 “Use of a Surface Plasmon Resonance Method to Investigate Antibiotic and Plasma Protein Interactions” Antimicrob. Agents and Chemother. 53(4):1528-1531), was assessed against 3 P. aeruginosa strains (APAE001, APAE002, APAE006). APAE001 is Pseudomonas aeruginosa ATCC27853; APAE002 is a wildtype lab strain of Pseudomonas aeruginosa known as PAM1020 or PA01. APAE006 is a strain of […]/PA01 with efflux deletions: delta mexAB-oprM::CM delta CD-oprJ::Gm delta mexEF-oprN::omega Hg. Lomovskaya, 0 et al. 1999. Use of a Genetic Approach To Evaluate the Consequences of Inhibition of Efflux Pumps in P aeruginosa. Antimicrob. Agents Chemother. 43: 1340-1346.
The standard procedure described in Susceptibility Testing was utilized with one adjustment, specifically 2% HSA and 0.05% AGP were added to the cation adjusted Mueller-Hinton Broth. The MIC for each strain of interest was then assessed in the presence and absence of HSA/AGP. Following MIC determination, the fold change in MIC was determined for each individual strain by dividing the MIC in the presence of HSA/AGP by the MIC in the absence of HSA/AGP. The protein binding Geomean was then calculated using these 3 values.

[2] = test system: bacterial isolates (clinical isolates and ATCC quality control strains); assay: Minimum Inhibitory Concentrations (MICs) by broth microdilution (CLSI susceptibility testing); type: cell-based; details: for Minimum Inhibitory Concentrations (MICs) APAE001: APAE001 is Pseudomonas aeruginosa ATCC27853
Experimental: Bacterial isolates were cultivated from −70° C. frozen stocks by overnight passages at 35° C. in ambient air on Mueller-Hinton agar (Beckton Dickinson, Franklin Lakes, N.J.). Clinical isolates tested were obtained from various geographically diverse hospitals in the US and abroad (Focus Diagnostics, Herndon, Va. and JMI, North Liberty, Iowa). Quality control strains were from the American Type Culture Collection (ATCC; Rockville, Md.).
Minimum Inhibitory Concentrations (MICs) were determined by the broth microdilution method in accordance with the Clinical and Laboratory Standards Institute (CLSI) guidelines. In brief, organism suspensions were adjusted to a 0.5 McFarland standard to yield a final inoculum between 3×10^5 and 7×10^5 colony-forming units (CFU)/mL. Drug dilutions and inocula were made in sterile, cation adjusted Mueller-Hinton Broth (Beckton Dickinson). An inoculum volume of 100 μL was added to wells containing 100 μL of broth with 2-fold serial dilutions of drug. All inoculated microdilution trays were incubated in ambient air at 35° C. for 18-24 h. Following incubation, the lowest concentration of the drug that prevented visible growth (OD600 nm<0.05) was recorded as the MIC. Performance of the assay was monitored by the use of laboratory quality-control strains and levofloxacin, a compound with a defined MIC spectrum, in accordance with CLSI guidelines.

[3] = APAE1096 is a clinical isolate, broth microdilution, read-out: Minimum Inhibitory Concentrations (MICs) APAE1096
[4] = Pseudomonas aeruginosa, APAE002 is a wildtype lab strain of Pseudomonas aeruginosa known as PAM1020 or PA01, broth microdilution, read-out: Minimum Inhibitory Concentrations (MICs) APAE002
[5] = Pseudomonas aeruginosa, ATCC27853, APAE001 is Pseudomonas aeruginosa ATCC27853, broth microdilution, read-out: Minimum Inhibitory Concentrations (MICs) APAE001
[6] = APAE1096 is a clinical isolate, broth microdilution
[7] = APAE002 is a wildtype lab strain of Pseudomonas aeruginosa known as PAM1020 or PA01, broth microdilution

SMILES | Protein Binding PB (Geomean of fold change in MIC) [1] | MIC [2, 3] [µg/mL] | MIC [2, 4] [µg/mL] | MIC [2, 5] [µg/mL] | Minimum Inhibitory Concentrations (MICs) APAE1096 [2, 6] | Minimum Inhibitory Concentrations (MICs) APAE001 ([2]; broth microdilution) | Minimum Inhibitory Concentrations (MICs) APAE002 [2, 7] | MIC ([2]; Pseudomonas aeruginosa, ATCC27853, read-out: Minimum Inhibitory Concentrations (MICs) APAE001) [µg/mL] | MIC ([2]; Pseudomonas aeruginosa, read-out: Minimum Inhibitory Concentrations (MICs) APAE002) [µg/mL] | MIC ([2]; read-out: Minimum Inhibitory Concentrations (MICs) APAE1096) [µg/mL]
CC(C)(N)[C@H](NC(=O)c1ccc(C#CC#CC2C[C@H]2C(O)CO)cc1)C(=O)NO (mixture of isomers) [Compound 25, N—((S)-3-amino-1-(hydroxyamino)-3-methyl-1-oxobutan-2-yl)-4-((2-(1,2-dihydroxyethyl)cyclopropyl)buta-1,3-diynyl)benzamide] | 11.5 | 1 to 8 (≈ 2.5 to 20 µM) | < 1 | < 1 |  |  |  |  |  | 
CC(C#CC#Cc1ccc(C(=O)N[C@H](C(=O)NO)C(C)(C)N)cc1)C(O)CO (single isomer, unassigned) [Compound 20A] | 2.0 | 8 to 16 (≈ 20.6 to 41.3 µM) | 1 to 8 (≈ 2.58 to 20.6 µM) | 1 to 8 (≈ 2.58 to 20.6 µM) |  |  |  |  |  | 
CC(C#CC#Cc1ccc(C(=O)N[C@H](C(=O)NO)C(C)(C)N)cc1)C(O)CO (single isomer, unassigned) [Compound 20B] | 1.0 |  |  |  |  |  |  |  |  | 
CC(C)(N)[C@H](NC(=O)c1ccc(C#CC#CC2C[C@H](O)[C@@H]2CO)cc1)C(=O)NO (single isomer, unassigned) [Compound 30A] | 2.5 |  | < 1 | < 1 | C (C = MIC's of greater than 8.0 μg/mL to 16.0 μg/mL) |  |  |  |  | 
CC(C)(N)[C@H](NC(=O)c1ccc(C#CC#CC2CC(O)[C@@H]2CO)cc1)C(=O)NO (single isomer, unassigned) [Compound 30B] | 3.2 |  |  |  | B (B = MIC's of greater than 1.0 μg/mL to 8.0 μg/mL) | A (A = MIC's of 1.0 μg/mL or less) | A (A = MIC's of 1.0 μg/mL or less) |  |  | 
CC(C)(N)[C@H](NC(=O)c1ccc(C#CC#CC2C[C@@H](O)[C@H]2CO)cc1)C(=O)NO (single isomer, unassigned) [Compound 31A] | 2.5 |  | 1 to 8 (≈ 2.5 to 20 µM) | 1 to 8 (≈ 2.5 to 20 µM) | C (C = MIC's of greater than 8.0 μg/mL to 16.0 μg/mL) |  |  |  |  | 
CC(C)(N)[C@H](NC(=O)c1ccc(C#CC#CC2CC(O)[C@H]2CO)cc1)C(=O)NO (single isomer, unassigned) [Compound 31B] | 3.2 |  |  |  | B (B = MIC's of greater than 1.0 μg/mL to 8.0 μg/mL) | A (A = MIC's of 1.0 μg/mL or less) | A (A = MIC's of 1.0 μg/mL or less) |  |  | 
CC(C)(N)[C@H](NC(=O)c1ccc(C#CC#CCO)cc1)C(=O)NO [Compound 1, (S)—N-(3-amino-1-(hydroxyamino)-3-methyl-1-oxobutan-2-yl)-4-(5-hydroxypenta-1,3-diynyl)benzamide] | 4.1 |  |  |  |  |  |  | < 1 | < 1 | < 1
CC(C)(N)[C@H](NC(=O)c1ccc(C#CCO)cc1)C(=O)NO [Compound 2, (S)—N-(3-amino-1-(hydroxyamino)-3-methyl-1-oxobutan-2-yl)-4-(3-hydroxyprop-1-ynyl)benzamide] | 1.3 | 8 to 16 (≈ 26.2 to 52.4 µM) | 1 to 8 (≈ 3.28 to 26.2 µM) | < 1 |  |  |  |  |  | 
CC(C)(N)[C@H](NC(=O)c1ccc(C#C/C=C/CO)cc1)C(=O)NO [Compound 3, (S,E)-N-(3-amino-1-(hydroxyamino)-3-methyl-1-oxobutan-2-yl)-4-(5-hydroxypent-3-en-1-ynyl)benzamide] | 1.3 | 1 to 8 (≈ 3.02 to 24.1 µM) | < 1 | < 1 |  |  |  |  |  | 
